{"source": "patent US9493460B2", "about": "“Diimide compounds” (UCL BUSINESS PLC, priority 2013, dated 2016)", "type_in_all_cases": "cell-based, human", "key": {"[1]": {"tested_on": "MiaPaCa2 (pancreatic) cells", "assay": "SRB growth inhibition assay, MiaPaCa2", "outline": "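Growth inhibition of MiaPaCa2 cells was measured by SRB staining after 96 h exposure to 2-fold serial dilutions of compound dissolved in DMSO. IC50 was derived from mean absorbance at 540 nm expressed as a percentage of untreated control wells.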"}, "A549 (lung) cells": {"tested_on": "A549 (lung) cells", "assay": "SRB growth inhibition assay, 96 hr exposure, A549", "conditions": "Homo sapiens, A549, 96 h exposure", "outline": "(§1)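 SRB growth inhibition was measured after 96 h exposure to 2-fold serial dilutions of compound, with cells maintained at 37 °C in 5% CO2 and medium containing 10% FBS. Absorbance at 540 nm was expressed as a percentage of untreated control wells. IC50 was derived from these values.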"}, "Panc1 (pancreatic) cells": {"tested_on": "Panc1 (pancreatic) cells", "assay": "SRB growth inhibition assay, 96 hr exposure, Panc1", "conditions": "Homo sapiens, PANC-1, 96 h exposure", "outline": "as §1"}, "Mia-PaCa2 cells": {"tested_on": "Mia-PaCa2 cells", "assay": "Senescence β-galactosidase staining", "conditions": "7 days treatment", "protocol": "FIG. 4. Micrographs showing the results of staining for evidence of cellular senescence in MiaPaCa2 cells using the β-galactosidase assay. Senescent cells are coloured blue in this procedure. Staining was performed after seven days treatments with (a) vehicle control, ×100 magnification, (b) 3.3 nM of compound 3d, ×200 magnification, (c) 6.6 nM of compound 3d, ×200 magnification, (d) 50 nM of compound 4, ×200 magnification, (e) plot of the percentage of senescent cells at the indicated concentrations of compounds 3d and 4, compared to the background senescence in this cell line (with vehicle control only). Cell counts were performed in triplicate and error bars represent estimated standard deviations.\nSenescence detection and quantification experiments were carried out using the Senescence β-galactosidase staining kit (Cell Signalling Technology, MA, USA) according to the manufacturer's protocol. Briefly, 1×10^5 cells were seeded in 6-well plates in 2 ml of medium supplemented with the test compound and incubated for 24 h. Cells were washed (2 ml PBS), fixed (2% formaldehyde and 2% glutaraldehyde in PBS, 15 min, room temperature) and washed (2×2 ml PBS) before staining overnight. Senescent cells, detected by their blue pigmentation, were counted using a light microscope.\nCDKN1A encodes the cyclin-dependent kinase p21WAF1 that induces replicative senescence, which is a well-studied consequence of telomerase inhibition and telomere maintenance disruption. […] Compounds 3b and 3d behaved in a similar manner to each other, with concentrations of 3-4 nM being sufficient to result in ˜50-60% of cells becoming senescent after this time-course."}, "telomerase": {"tested_on": "telomerase", "assay": "TRAP-LIG cellular telomerase activity assay", "conditions": "at the doses relevant to the IC50 values", "protocol": "FIG. 1. Gel showing telomerase activity in MIA-Pa-Ca-2 cells treated with compound 3h after seven days of treatment. Lane 1; untreated cells, lanes 2-4; cells treated increasing concentrations of 3h. Telomerase activity was assessed using the TRAP-LIG assay as described in Materials and Methods. Compound concentrations are indicated. Neg; untreated cells, Pos; positive control. Neg: negative control with telomerase but no ligand.\nTelomerase activity was determined using the TRAP-LIG assay, a modified telomere repeat amplification protocol that ensures that there is no carry-over of ligand into the second PCR step of the assay. Briefly, 1 μg of protein from untreated and treated cells were incubated with TS forward primer (0.1 μg of 5′-AAT CCG TCG AGC AGA GTT-3′) at 30° C. for 10 min to allow the initial elongation to take place. Elongated products were purified using the QIAquick nucleotide purification kit (Qiagen) according to the manufacturer's instructions. Eluted samples were freeze-dried and re-dissolved in PCR grade water. Re-dissolved PCR products were subjected to amplification in master mix containing ACX reverse primer (1 μM, 5′-GCG CGG [CTTACC]3 CTA ACC-3′), TS forward primer (0.1 μg), TRAP buffer, BSA (5 μg), 0.5 mM dNTPs, and 2U RedHot TAQ polymerase (ABgene, U.K.) for 35 cycles of 94° C. for 30 s, 61° C. for 1 min, and at 72° C. for 1 min. […]"}}}
{"smiles": "CN1CCN(CCCNc2cc3c4c(c(NCCCN5CCN(C)CC5)cc5c4c2C(=O)N(CCCN2CCOCC2)C5=O)C(=O)N(CCCN2CCOCC2)C3=O)CC1", "note": "[Compound 3d, 4,9-bis((3-(4-methylpiperazin-1-yl)propyl)amino)-2,7-bis(3-morpholinopropyl)benzo[lmn][3,8]phenanthroline-1,3,6,8(2H,7H)-tetraone]", "values": [{"measurement": "selectivity for Mia-PaCa2 compared to the normal fibroblast line WI-38", "setting": "[1]", "result": "~20", "unit": "fold"}, {"measurement": "IC50", "setting": "[1]; Homo sapiens, MIA PaCa-2, SRB assay, 96 h exposure, read-out: IC50 Mia-PaCa2", "result": "10 to 20", "unit": "nM"}, {"measurement": "growth response of MiaPaCa2 cells", "setting": "[1]; exposure to 80 nM", "result": "no growth recovery"}, {"measurement": "growth response of MiaPaCa2 cells", "setting": "[1]; exposure to 160 nM", "result": "no viable cells could be recovered by 72 h"}, {"measurement": "growth response of MiaPaCa2 cells", "setting": "[1]; exposure to between 5 nM and 40 nM", "result": "titratable growth inhibition with subsequent full recovery of confluent growth at 144 h"}, {"measurement": "IC50", "setting": "A549 (lung) cells", "result": "10 to 20", "unit": "nM"}, {"measurement": "IC50", "setting": "Panc1 (pancreatic) cells", "result": "10 to 20", "unit": "nM"}, {"measurement": "induction of senescence (in words)", "setting": "Mia-PaCa2 cells", "result": "strong induction of senescence"}, {"measurement": "potency as inducer of cellular senescence relative to compound 4", "setting": "Mia-PaCa2 cells", "result": "~10", "unit": "fold"}, {"measurement": "telomerase activity inhibition", "setting": "telomerase", "result": "not inhibitors of telomerase activity"}]}
